Like-named read-outs stand apart in the source and are kept apart here.

Experiment in all cases: cell-based
The target of assay [1] is T1, H2R (Homo sapiens, UniProt P25021).
T1 construct: gene HRH2; full receptor, C-terminal NlucC tag (11 aa split-NanoLuc fragment); co-expressed with NlucN-mGs (mini-Gs393) in HEK293T
Also on record: species or system HEK293T. The note with it: HEK-293T; read-out: Mini G Protein Recruitment / Emax [%].

Assay [2] addresses T2, H1R (Homo sapiens, UniProt P35367). Also on record: gene HRH1; full receptor, C-terminal NlucC tag (11 aa split-NanoLuc fragment); co-expressed with NlucN-mGsq (mini-Gs/q71) in HEK293T; species or system HEK293T. The conditions noted are these: HEK-293T, read-out: Mini G Protein Recruitment / Emax [%].
The target in assay [3] is T1, H2R. On the set-up: species or system HEK293T. The conditions noted are these: HEK-293T; read-out: Mini G Protein Recruitment / Emax [%]. This is another data set of the same source.
Assay [4] has as its target T2, H1R. Also on record: gene HRH1. The conditions noted are these: HEK-293T, read-out: Mini G Protein Recruitment / Emax [%].

T1 sequence (P25021 whole entry, the tested form may be a part): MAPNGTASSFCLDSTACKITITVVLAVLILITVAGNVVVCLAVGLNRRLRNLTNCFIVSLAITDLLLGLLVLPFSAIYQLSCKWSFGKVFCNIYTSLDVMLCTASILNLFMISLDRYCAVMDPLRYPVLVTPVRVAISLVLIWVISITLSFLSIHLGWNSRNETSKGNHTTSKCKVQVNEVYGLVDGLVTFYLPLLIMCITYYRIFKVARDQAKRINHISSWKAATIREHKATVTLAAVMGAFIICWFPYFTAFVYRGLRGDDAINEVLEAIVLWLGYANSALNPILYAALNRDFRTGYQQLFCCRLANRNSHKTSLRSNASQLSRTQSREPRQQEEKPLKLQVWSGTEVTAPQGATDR
T2 sequence (P35367 whole entry, the tested form may be a part): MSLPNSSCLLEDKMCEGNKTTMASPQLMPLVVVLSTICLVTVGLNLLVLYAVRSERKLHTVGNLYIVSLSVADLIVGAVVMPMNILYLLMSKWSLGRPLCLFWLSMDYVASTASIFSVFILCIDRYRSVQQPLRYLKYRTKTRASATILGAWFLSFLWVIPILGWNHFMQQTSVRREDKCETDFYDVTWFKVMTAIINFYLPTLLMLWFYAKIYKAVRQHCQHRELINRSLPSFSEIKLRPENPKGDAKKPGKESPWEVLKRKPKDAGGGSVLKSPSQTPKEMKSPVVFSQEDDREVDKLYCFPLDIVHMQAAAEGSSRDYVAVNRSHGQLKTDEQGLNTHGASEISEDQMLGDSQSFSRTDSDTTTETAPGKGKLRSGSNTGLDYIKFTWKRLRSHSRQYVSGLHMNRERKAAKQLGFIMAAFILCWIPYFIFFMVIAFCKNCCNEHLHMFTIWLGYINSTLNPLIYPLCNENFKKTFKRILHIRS

As for `CNCCc1cnc[nH]1` [Namh, N^α-methylhistamine], the Emax in assay [1] amounted to 93 ± 1.7%; in assay [2], 99 ± 2%.

Turning to `Cc1[nH]cnc1CSCCNC(=N)NCCCc1c[nH]cn1` [impro, impromidine], the Emax in assay [1] turned out to be 90 ± 1.5%.

For the compound `CN=C(NC#N)NCCSCc1nc[nH]c1C` [cim, cimetidine], the Emax in assay [3] is -8 ± 0.8%.

Take `CNC(=C[N+](=O)[O-])NCCSCc1ccc(CN(C)C)o1` [ran, ranitidine]: in assay [3], the Emax is -8 ± 0.7%.

As to `NCCc1c[nH]cn1` [his, histamine], the Emax in assay [3] and in assay [4] was 100% in each case.

On to `CCC(=O)NC(N)=NCCCc1cnc[nH]1` [PI294, UR-PI294], for which the Emax in assay [1] stood at 95 ± 1.1%; in assay [2], 29 ± 1.4%.

Regarding `Cc1nc(N)sc1CCN` [amt, amthamine], the Emax in assay [1] is 105 ± 2.8%.

Take `NC(N)=Nc1nc(CSCCC(N)=NS(N)(=O)=O)cs1` [fam, famotidine]: in assay [3], the Emax was -9 ± 0.7%.

On to `Cc1[nH]cnc1CCN` [4mhis, 4-methylhistamine], for which the Emax stood at 93 ± 2.2% in assay [1] and 44 ± 2.4% in assay [2].

Turning to `CN(C)CCCSC(=N)N` [dim, dimaprit], the Emax in assay [1] is 94 ± 2.6%.

Take `c1ccc(C(CCc2nc(CCNCCc3c[nH]cn3)c[nH]2)c2ccccc2)cc1` [suprahis, suprahistaprodifen]: the Emax in assay [2] was determined as 49 ± 3.7%.

`NCCc1c[nH]c(CCC(c2ccccc2)c2ccccc2)n1` [histapro, histaprodifen]: the Emax in assay [2] came to 33 ± 2%.

Source of the values: publication PMC7698210 (International Journal of Molecular Sciences, 2020).
